Here are results for 25 compounds from paper PMC3189208 (PLoS ONE, 2011).

Like-named read-outs stand apart in the source and are kept apart here.

The test system of test [1] is MOR kinase pathways in HEK-MOR cells. It counts as cell-based, human.
Test [2] concerns MOR G-protein signaling in HEK-MOR cells. It counts as cell-based, human.
In another test the target is MOR. The conditions noted are these: cited from earlier work.
The subject of a further test is parental HEK293 cells. It counts as cell-based, human.

As to `O=C(Cc1ccc(Cl)c(Cl)c1)N1CCCCC1CN1CCCC1` (stereo not drawn) [BRL-52537], the “maximal DMR response after SB202190 pretreatment vs untreated” value in test [1] is on record as “significantly reduced”. Moreover, the “ligand-induced DMR in cholera toxin (CTx)-pretreated cells vs untreated” value in test [2] is on record as “reduce”. In addition, the Ki at MOR was 1.56 µM.

In the case of `Oc1ccc2c3c1O[C@H]1c4c(c5ccccc5n4Cc4ccccc4)C[C@@]4(O)[C@@H](C2)N(CC2CC2)CC[C@]314` [N-benzylnaltrindole], in the test on MOR, the IC50 was 0.0112 µM.

Turning to `COc1ccc2c3c1O[C@H]1[C@@H](O)C=C[C@H]4[C@@H](C2)NCC[C@@]341` [(-)-norcodeine], on MOR, the Ki is 0.267 µM. As for `Oc1ccc2c3c1O[C@H]1c4oc5ccccc5c4C[C@@]4(O)[C@@H](C2)N(CC2CC2)CC[C@]314` [Naltriben], at MOR, the Ki is 0.0808 µM. Turning to (met^5)-enkephalin, the inhibition constant Ki at MOR was 0.003 µM. As to `C=CCN1CC[C@]23CCCC[C@H]2[C@H]1Cc1ccc(O)cc13` [levallorphan], the Ki at MOR is 0.0017 µM.

Turning to (D-Ala^2, D-Leu^5) enkephalin, the dissociation constant (Kd) at MOR was 0.15 µM. Turning to `NC(=O)[C@H](Cc1ccccc1)NC(=O)[C@H](Cc1ccccc1)NC(=O)[C@@H]1CCCN1C(=O)[C@@H](N)Cc1ccc(O)cc1` [endomorphin-2], the “ligand-induced DMR in cholera toxin (CTx)-pretreated cells vs untreated” value in test [2] is on record as “reduce”. The Ki at MOR is 0.00043 µM. In the case of `CN(C(=O)Cc1ccc(Cl)c(Cl)c1)[C@H](CN1CCCC1)c1cccc(N=C=S)c1` [DIPPA, 2-(3,4-Dichlorophenyl)-N-methyl-N-[(1S)-1-(3-isothiocyanatophenyl)-2-(1-pyrrolidinyl)ethyl]acetamide], in test [1], the “late DMR response after U0126 pretreatment vs untreated” value was “significantly suppressed”, the “maximal DMR response after SB202190 pretreatment vs untreated” value is given as “significantly reduced” and the “maximal DMR response after U0126 pretreatment vs untreated” value is given as “sensitive”. Besides, the IC50 with MOR was 1.8 µM. `C[C@@H](NC(=O)[C@@H](N)Cc1ccc(O)cc1)C(=O)NCC(=O)N(C)[C@@H](Cc1ccccc1)C(=O)NCCO` [DAMGO]: in test [1], the “maximal DMR response after SB202190 pretreatment vs untreated” value is listed as “not completely blunted”. Also, the “ligand-induced DMR in pertussis toxin (PTx)-pretreated cells” value in test [2] is listed as “small P-DMR”.

Turning to morphiceptin, in the test on MOR, the IC50 is 0.0198 µM. On to `CN(C(=O)Cc1ccc(Cl)c(Cl)c1)[C@H](CN1CCCC1)c1ccccc1` [ICI 199,441], for which, in the test with parental HEK293 cells (ligand 10 µM), the “DMR produced by ligand in parental HEK293 cells” value is on record as “small N-DMR”. deltorphin II: the dissociation constant (Kd) at MOR was 0.0033 µM. As to `C=CC[N+]1(C)CC[C@]23c4c5ccc(O)c4O[C@H]2C(=O)CC[C@@]3(O)[C@H]1C5` (stereo partly drawn) [naloxone methionone], on MOR, the Ki was 0.0289 µM. On to DSLET, for which, in test [1], the “maximal DMR response after SB202190 pretreatment vs untreated” value is given as “significantly reduced”. Moreover, the Kd at MOR is 0.12 µM. Take nociceptin 1-13: ORL1 agonist: on MOR, the Ki is 0.27 µM. On to `C=CCN1CCC2(C)c3cc(O)ccc3CC1C2C` (stereo not drawn) [SKF10047], for which the Ki on MOR was 1.9 µM. As to `COc1cccc(C2(O)CCCCC2CN(C)C)c1` (stereo not drawn) [tramadol], in test [1], the “maximal DMR response after SB202190 pretreatment vs untreated” value is on record as “significantly reduced” and the “maximal DMR response after U0126 pretreatment vs untreated” value was “sensitive”. With dynorphin A 1-13, in test [1], the “maximal DMR response after SB202190 pretreatment vs untreated” value is reported as “significantly reduced” and the “maximal DMR response after SP100625 pretreatment vs untreated” value was “enhanced”. Besides, the Kd on MOR was 0.031 µM. For dynorphin A 1-8, at MOR, the Ki was 0.0223 µM.

For dynorphin B, the Ki at MOR is 0.013 µM. Regarding `COC(=O)[C@@H]1C[C@H](OC(C)=O)C(=O)[C@H]2[C@@]1(C)CC[C@H]1C(=O)O[C@H](c3ccoc3)C[C@]21C` [salvinorin A], the EC50 in the test on MOR is […]. As for `O=C1/C(=C/c2ccccc2)C[C@@]2(O)[C@H]3Cc4ccc(O)c5c4[C@@]2(CCN3CC2CC2)[C@H]1O5` [BNTX], the “DMR produced by ligand in parental HEK293 cells” value with parental HEK293 cells was “negative DMR”. Further, the inhibitory constant (Ki) at MOR was 0.018 µM. With DPDPE, the Kd at MOR is 0.6 µM. As to `COC(=O)/C=C/C(=O)N[C@@H]1CC[C@@]2(O)[C@H]3Cc4ccc(O)c5c4[C@@]2(CCN3CC2CC2)[C@H]1O5` [β-funaltrexamine], in test [1], the “late DMR response after SP100625 pretreatment vs untreated” value was “potentiated” and the “maximal DMR response after SP100625 pretreatment vs untreated” value was “enhanced”. At MOR, the Ki is 0.00033 µM.
